Publication PMC5929447 (Oncotarget, 2018)
Like-named read-outs stand apart in the source and are kept apart here.

Columns and labels:
[1] = target: BCL-XL (Homo sapiens, UniProt Q07817); test: Fluorescence polarization (FP) with Fluorescein-PUMA, BCL-XL; assay type: binding; details: Fluorescein-PUMA as binder; read-out: FP_BCL-XL_KI
Description: Final concentrations of MCL-1, BFL-1, BCL-2 and BCL-XL proteins were 10, 10, 10 and 20 nM respectively. The assay plates were incubated for 2 hours at room temperature and the FP was measured on a Synergy 2 reader (Ex. 528 nm, Em. 640 nm, Cut-off 510 nm). The binding of increasing doses of compound was expressed as a percentage reduction in mP compared to the window established between ‘DMSO only’ and ‘total inhibition’ control (30 μM PUMA). […] The KI was subsequently calculated as previously described [42].

[2] = system: RS4;11 cell line; test: CellTiter-Glo cell viability, RS4;11; assay type: cell-based; details: Homo sapiens, 72 h of treatment
Description: (§1) Cells were seeded into 96-well plates and treated at 8 points with 1:2 serial dilution of compounds. Cell viability was assessed and assayed for viability using CellTiter-Glo reagent (Promega) following the manufacturer's instructions. Plates were read using Tecan luminescence plate reader. Results were normalized to the viability of cells without compounds (control wells). The IC50 values were calculated using nonlinear regression algorithms in XCell software.

[3] = system: BAX-deficient RS4;11 cells; test: Viability of RS4;11 cells transduced with shRNA BAX; assay type: cell-based; details: 72 h
[4] = system: isolated platelets from healthy volunteers; test: Apoptosis (annexin V) in isolated platelets; assay type: cell-based; details: Homo sapiens, Platelet; 4 healthy donors, 3 h; read-out: EC50 apoptosis (PS+) in isolated platelets
Description: (§2) Peripheral blood samples from CLL patients were obtained with informed patient consent and local ethical committee approval (UHL-09723). […] Interphase fluorescence in situ hybridization (FISH) was performed for detection of 17p13 deletion. Mantle cell lymphoma (MCL) primary cells were obtained after informed consent from MCL patients treated at the department of clinical hematology from the University Hospital of Nantes, France. Peripheral MCL cells from blood or pleural effusion, were purified after Ficoll-Hypaque separation with immuno-magnetic anti-CD19 beads (Miltenyi, Paris, France). Primary cells were cultured in RPMI-1640 supplemented with 10% FCS and 2 mM glutamine. Human platelets were isolated from citrate blood donated by healthy volunteers. Washed platelets were cultured in Hepes-buffered saline (HBS, 10 mM Hepes, 150 mM NaCl, 5 mM KCl, 1 mM MgSO4, pH 7.4).
EC50 values were calculated using GraphPadPrism (non-linear fit, sigmoidal dose response, variable slope). […] Cell death was assessed in the CD19+ primary MCL cells by annexinV-FITC staining combined with an analysis of altered cellular morphology (lower FCS). Fluorescence was analyzed on FACSCalibur.

[5] = system: Diffuse Large B-Cell Lymphoma cell lines; test: CellTiter-Glo viability, DLBCL cell line panel; assay type: cell-based; details: 72 h, six out of eleven DLBCL cell lines tested
Description: as §1

[6] = system: primary Mantle Cell Lymphoma cells; test: Apoptosis (annexin V flow cytometry) in primary MCL cells; assay type: cell-based; details: Homo sapiens, 24 h
Description: as §2, with “7.4). […] EC50 values were calculated using GraphPadPrism (non-linear fit, sigmoidal dose response, variable slope). […] Cell death was assessed in the CD19+ primary MCL cells by annexinV-FITC staining combined with an analysis of altered cellular morphology (lower FCS). Fluorescence was analyzed on FACSCalibur.” for “7.4).”

[7] = system: BCL-XL-dependent FL5.12 cells; test: Apoptosis (annexin V/PI) in FL5.12 cells expressing BCL-XL upon IL-3 withdrawal; details: 24 h upon IL-3 withdrawal

Sequence of BCL-XL (Q07817 whole entry): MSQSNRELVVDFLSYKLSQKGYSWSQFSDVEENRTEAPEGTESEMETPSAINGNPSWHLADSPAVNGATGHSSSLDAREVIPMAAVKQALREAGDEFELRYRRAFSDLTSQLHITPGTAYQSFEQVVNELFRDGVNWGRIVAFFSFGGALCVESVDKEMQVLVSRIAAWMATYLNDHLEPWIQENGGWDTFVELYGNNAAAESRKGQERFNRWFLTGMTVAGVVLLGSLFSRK

Ki [1]: 520 nM
IC50 [2]: 71.6 nM
IC50 ([3]; Homo sapiens, RS4-11, shRNA BAX): 2700 nM
IC50 [5]: < 1000 nM
EC50 ([6]; 8 patients, 24 h of treatment, read-out: EC50 apoptosis in primary MCL cells, range over patients): 2.5 to 110 nM
EC50 ([6]; read-out: EC50 S55746 primary MCL cells, patient MCL2, 24 h): 15 nM
EC50 ([6]; read-out: EC50 S55746 primary MCL cells, patient MCL3, 24 h): 12 nM
EC50 ([6]; read-out: EC50 S55746 primary MCL cells, patient MCL4, 24 h): 12 nM
EC50 ([6]; read-out: EC50 S55746 primary MCL cells, patient MCL5, 24 h): 5 nM
EC50 ([6]; read-out: EC50 S55746 primary MCL cells, patient MCL6, 24 h): 4 nM
EC50 ([6]; read-out: EC50 S55746 primary MCL cells, patient MCL7, 24 h): 3 nM
EC50 ([6]; read-out: EC50 S55746 primary MCL cells, patient MCL8, 24 h): 2.5 nM
SMILES: O=C(c1cc(-c2cc3c(cc2C(=O)N2Cc4ccccc4C[C@H]2CN2CCOCC2)OCO3)n2c1CCCC2)N(c1ccccc1)c1ccc(O)cc1 [S55746]
reduction of sensitivity of BAX-deficient versus control RS4;11 [3]: ≈ 50 fold
EC50 [4]: > 3000 nM
apoptosis induction (PS+ cells) in BCL-XL-dependent FL5.12 cells [7]: minor effect
